Laboratory results taken from ChEMBL document CHEMBL5154705, “Discovery and mechanistic study of thiazole-4-acylsulfonamide derivatives as potent and orally active ChemR23 inhibitors with a long-acting effect in cynomolgus monkeys” (Bioorg Med Chem, 2022).

How the values were obtained:
Type in all cases: ADME, organism-based, Macaca fascicularis
[1] = Tmax in cynomolgus monkey at 0.3 mg/kg, po; conditions: in vivo
[2] = Drug concentration in plasma of cynomolgus monkey at 30 mg/kg, po after 6 hrs
[3] = Tmax in cynomolgus monkey at 0.3 to 1 mg/kg, po; conditions: in vivo, dose 0.3-1 mg/kg
[4] = Drug concentration in plasma of cynomolgus monkey at 30 mg/kg, po after 4 hrs
[5] = Drug concentration in cynomolgus monkey plasma at 1 mg/kg, po after 8 hrs
[6] = MRT in cynomolgus monkey at 0.3 mg/kg, po; conditions: in vivo
[7] = Half life in cynomolgus monkey at 0.3 mg/kg, po; conditions: in vivo
[8] = MRT in cynomolgus monkey at 0.3 to 1 mg/kg, po; conditions: in vivo, dose 0.3-1 mg/kg
[9] = Drug concentration in cynomolgus monkey plasma at 0.3 mg/kg, po after 8 hrs
[10] = Cmax in cynomolgus monkey at 0.3 to 1 mg/kg, po; design: route po; conditions: in vivo, dose 0.3-1 mg/kg
[11] = AUC(0 to infinity) in cynomolgus monkey at 0.3 mg/kg, po; design: time infinity, dose 0.3 mg/kg, route po; conditions: in vivo
[12] = Half life in cynomolgus monkey at 0.3 to 1 mg/kg, po; conditions: in vivo, dose 0.3-1 mg/kg
[13] = AUC(0 to infinity) in cynomolgus monkey at 0.3 to 1 mg/kg, po; design: route po; conditions: in vivo, dose 0.3-1 mg/kg
[14] = Drug concentration in plasma of cynomolgus monkey at 30 mg/kg, po after 8 hrs
[15] = Cmax in cynomolgus monkey at 0.3 mg/kg, po; design: dose 0.3 mg/kg, route po; conditions: in vivo

Compound: Cc1ccc(-c2nc(=O)o[nH]2)c(-c2ccc([C@@H](C)N(CC3CC3)c3nc(C(=O)NS(=O)(=O)C4CC4)c(C4CC4)s3)cc2)c1
- Tmax [1]: 3.3 h
- concentration at 6 h [2]: 233 µM
- Tmax [3]: 2.7 h
- concentration at 4 h [4]: 332 µM
- concentration at 8 h [5]: 2580 ng/mL
- MRT [6]: 5.4 h
- half-life [7]: 3.3 h
- MRT [8]: 6 h
- concentration at 8 h [9]: 403 ng/mL
- Cmax [10]: 6960 ng/mL
- AUC(0-inf) [11]: 10200 ng·h/mL
- half-life [12]: 3.1 h
- AUC(0-inf) [13]: 53700 ng·h/mL
- concentration at 8 h [14]: 177 µM
- Cmax [15]: 1370 ng/mL
